Test results as given in ChEMBL document CHEMBL4622865, “Sulfonamide-based 4-anilinoquinoline derivatives as novel dual Aurora kinase (AURKA/B) inhibitors: Synthesis, biological evaluation and in silico insights” (Bioorg Med Chem, 2020).

What was measured:
Aurora kinase B [1] = target: T1, Aurora kinase B (Homo sapiens, UniProt Q96GD4); experiment: Inhibition of human Aurora B using [H-LRRASLG] as substrate at 20 uM in presence of [gamma-33P]-ATP incubated for 2 hrs by hotspot kinase assay relative to control
HCT-116 = experiment: Antitumor activity against human HCT116 cells assessed as growth inhibition at 10-'5 M incubated for 48 hrs by SRB assay relative to control; type: functional
[2] = target: T2, Aurora kinase A (Homo sapiens) (UniProt O14965); experiment: Inhibition of human Aurora A using [H-LRRASLG] as substrate at 20 uM in presence of [gamma-33P]-ATP incubated for 2 hrs by hotspot kinase assay relative to control
T2 sequence (whole entry): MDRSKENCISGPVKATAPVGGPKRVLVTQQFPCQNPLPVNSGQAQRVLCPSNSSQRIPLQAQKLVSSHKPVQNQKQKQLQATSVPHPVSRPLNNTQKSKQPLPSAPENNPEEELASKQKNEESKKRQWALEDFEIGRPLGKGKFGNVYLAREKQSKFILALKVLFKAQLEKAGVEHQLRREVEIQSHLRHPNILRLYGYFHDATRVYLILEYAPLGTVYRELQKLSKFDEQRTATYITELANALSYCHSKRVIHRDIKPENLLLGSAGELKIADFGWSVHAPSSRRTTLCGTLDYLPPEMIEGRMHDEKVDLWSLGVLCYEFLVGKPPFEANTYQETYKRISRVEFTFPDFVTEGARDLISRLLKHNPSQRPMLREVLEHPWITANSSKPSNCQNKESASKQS

Aurora kinase A = target: T3, Aurora kinase A (Homo sapiens, UniProt O14965); experiment: Inhibition of human Aurora A using [H-LRRASLG] as substrate in presence of [gamma-33P]-ATP incubated for 2 hrs by hotspot kinase assay
T3 sequence (O14965 whole entry): T2 sequence (whole entry)

786-0 = experiment: Antitumor activity against human 786-O cells assessed as growth inhibition at 10-'5 M incubated for 48 hrs by SRB assay relative to control; type: functional
M14 = experiment: Antitumor activity against human M14 cells assessed as growth inhibition at 10-'5 M incubated for 48 hrs by SRB assay relative to control; type: functional
Aurora kinase B [3] = target: T1, Aurora kinase B; experiment: Inhibition of human Aurora B using [H-LRRASLG] as substrate in presence of [gamma-33P]-ATP incubated for 2 hrs by hotspot kinase assay
KM12 = experiment: Antitumor activity against human KM12 cells assessed as growth inhibition at 10-'5 M incubated for 48 hrs by SRB assay relative to control; type: functional
MOLT-4 = experiment: Antitumor activity against human MOLT4 cells assessed as growth inhibition at 10-'5 M incubated for 48 hrs by SRB assay relative to control; type: functional
MDA-MB-231 = experiment: Antitumor activity against human MDA-MB-231 cells assessed as growth inhibition at 10-'5 M incubated for 48 hrs by SRB assay relative to control; type: functional
CAKI-1 = experiment: Antitumor activity against human CAKI-1 cells assessed as growth inhibition at 10-'5 M incubated for 48 hrs by SRB assay relative to control; type: functional
HOP-62 = experiment: Antitumor activity against human HOP62 cells assessed as growth inhibition at 10-'5 M incubated for 48 hrs by SRB assay relative to control; type: functional
T47D = experiment: Antitumor activity against human T47D cells assessed as growth inhibition at 10-'5 M incubated for 48 hrs by SRB assay relative to control; type: functional
UO-31 = experiment: Antitumor activity against human UO31 cells assessed as growth inhibition at 10-'5 M incubated for 48 hrs by SRB assay relative to control; type: functional
UACC-62 = experiment: Antitumor activity against human UACC62 cells assessed as growth inhibition at 10-'5 M incubated for 48 hrs by SRB assay relative to control; type: functional
Hs-578T = experiment: Antitumor activity against human Hs 578T cells assessed as growth inhibition at 10-'5 M incubated for 48 hrs by SRB assay relative to control; type: functional
A498 = experiment: Antitumor activity against human A498 cells assessed as growth inhibition at 10-'5 M incubated for 48 hrs by SRB assay relative to control; type: functional
IGROV-1 = experiment: Antitumor activity against human IGROV1 cells assessed as growth inhibition at 10-'5 M incubated for 48 hrs by SRB assay relative to control; type: functional
SK-MEL-5 = experiment: Antitumor activity against human SK-MEL-5 cells assessed as growth inhibition at 10-'5 M incubated for 48 hrs by SRB assay relative to control; type: functional
SNB-75 = experiment: Antitumor activity against human SNB75 cells assessed as growth inhibition at 10-'5 M incubated for 48 hrs by SRB assay relative to control; type: functional
MCF7 = experiment: Antitumor activity against human MCF7 cells assessed as growth inhibition at 10-'5 M incubated for 48 hrs by SRB assay relative to control; type: functional
BT-549 = experiment: Antitumor activity against human BT549 cells assessed as growth inhibition at 10-'5 M incubated for 48 hrs by SRB assay relative to control; type: functional
SR = experiment: Antitumor activity against human SR cells assessed as growth inhibition at 10-'5 M incubated for 48 hrs by SRB assay relative to control; type: functional
K562 = experiment: Antitumor activity against human K562 cells assessed as growth inhibition at 10^-5 M incubated for 48 hrs by SRB assay relative to control; type: functional; settings: K562, 48 h, read-out: GI
NCI/ADR-RES = experiment: Antitumor activity against human NCI-ADR-RES cells assessed as growth inhibition at 10-'5 M incubated for 48 hrs by SRB assay relative to control; type: functional
[4] = Antitumor activity against human […] cells assessed as growth inhibition at 10-'5 M incubated for 48 hrs by SRB assay relative to control; type: functional
HOP-92 = experiment: Antitumor activity against human HOP92 cells assessed as growth inhibition at 10-'5 M incubated for 48 hrs by SRB assay relative to control; type: functional
LOX IMVI = experiment: Antitumor activity against human LOXIMVI cells assessed as growth inhibition at 10-'5 M incubated for 48 hrs by SRB assay relative to control; type: functional
HT-29 = experiment: Antitumor activity against human HT-29 cells assessed as growth inhibition at 10-'5 M incubated for 48 hrs by SRB assay relative to control; type: functional
SK-OV-3 = experiment: Antitumor activity against human SKOV3 cells assessed as growth inhibition at 10-'5 M incubated for 48 hrs by SRB assay relative to control; type: functional
HCT-15 = experiment: Antitumor activity against human HCT15 cells assessed as growth inhibition at 10-'5 M incubated for 48 hrs by SRB assay relative to control; type: functional
SNB-19 = experiment: Antitumor activity against human SNB19 cells assessed as growth inhibition at 10-'5 M incubated for 48 hrs by SRB assay relative to control; type: functional
ACHN = experiment: Antitumor activity against human ACHN cells assessed as growth inhibition at 10-'5 M incubated for 48 hrs by SRB assay relative to control; type: functional
RXF 393 = experiment: Antitumor activity against human RXF393 cells assessed as growth inhibition at 10-'5 M incubated for 48 hrs by SRB assay relative to control; type: functional
SN12C = experiment: Antitumor activity against human SN12C cells assessed as growth inhibition at 10-'5 M incubated for 48 hrs by SRB assay relative to control; type: functional
SF-268 = experiment: Antitumor activity against human SF268 cells assessed as growth inhibition at 10-'5 M incubated for 48 hrs by SRB assay relative to control; type: functional
PC-3 = experiment: Antitumor activity against human PC3 cells assessed as growth inhibition at 10-'5 M incubated for 48 hrs by SRB assay relative to control; type: functional
NCI-H522 = experiment: Antitumor activity against human NCI-H522 cells assessed as growth inhibition at 10-'5 M incubated for 48 hrs by SRB assay relative to control; type: functional
Homo sapiens = organism: Homo sapiens; experiment: Selectivity ratio of IC50 for inhibition of human AURKB to IC50 for inhibition of human AURKA
EKVX = experiment: Antitumor activity against human EKVX cells assessed as growth inhibition at 10-'5 M incubated for 48 hrs by SRB assay relative to control; type: functional

T1 sequence (Q96GD4 whole entry): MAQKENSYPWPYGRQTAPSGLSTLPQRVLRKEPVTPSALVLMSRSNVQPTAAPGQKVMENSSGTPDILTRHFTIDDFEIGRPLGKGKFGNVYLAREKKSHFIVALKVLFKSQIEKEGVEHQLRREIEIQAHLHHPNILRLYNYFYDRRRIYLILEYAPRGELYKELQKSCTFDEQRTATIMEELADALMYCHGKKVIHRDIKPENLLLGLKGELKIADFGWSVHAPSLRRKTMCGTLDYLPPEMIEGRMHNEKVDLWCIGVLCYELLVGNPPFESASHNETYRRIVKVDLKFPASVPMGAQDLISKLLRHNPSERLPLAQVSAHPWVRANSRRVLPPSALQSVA

CCOC(=O)c1cnc2ccccc2c1Nc1cccc(NS(C)(=O)=O)c1
inhibition (Aurora kinase B [1]): 56.6% | growth inhibition (GI) (HCT-116): >50% | inhibition [2]: 71.9% | IC50 (Aurora kinase A): 13.4 µM | growth inhibition (GI) (786-0): >=20% | growth inhibition (GI) (M14): >50% | IC50 (Aurora kinase B [3]): 13.2 µM

CCOC(=O)c1cnc2ccccc2c1Nc1cccc(S(=O)(=O)NC)c1
growth inhibition (GI) (KM12): >=20% | growth inhibition (GI) (MOLT-4): >=20% | inhibition (Aurora kinase B [1]): 33.7% | growth inhibition (GI) (MDA-MB-231): >=20% | growth inhibition (GI) (CAKI-1): >=20% | inhibition [2]: 6.15% | growth inhibition (GI) (HOP-62): >=20% | growth inhibition (GI) (T47D): >=20% | growth inhibition (GI) (UO-31): >=20% | growth inhibition (GI) (UACC-62): >=20% | growth inhibition (GI) (Hs-578T): >=20% | growth inhibition (GI) (A498): >=20% | growth inhibition (GI) (IGROV-1): >=20% | growth inhibition (GI) (SK-MEL-5): >=20% | growth inhibition (GI) (SNB-75): >=20% | growth inhibition (GI) (MCF7): >=20%

CCOC(=O)c1cnc2ccc(C)cc2c1Nc1cccc(S(N)(=O)=O)c1
inhibition (Aurora kinase B [1]): 57.7% | growth inhibition (GI) (HCT-116): >50% | inhibition [2]: 14.9% | growth inhibition (GI) (BT-549): >=20% | IC50 (Aurora kinase B [3]): 8.33 µM

CCOC(=O)c1cnc2cc(Cl)cc(Cl)c2c1Nc1cccc(S(=O)(=O)NC)c1
growth inhibition (GI) (KM12): 64% | inhibition (Aurora kinase B [1]): 90.8% | growth inhibition (GI) (SR): >=25% | inhibition of growth at 10 µM (K562): 35% | growth inhibition (GI) (NCI/ADR-RES): >=25% | growth inhibition (GI) [4]: 64% | growth inhibition (GI) (HOP-92): 53% | growth inhibition (GI) (CAKI-1): 41% | inhibition [2]: 58.6% | IC50 (Aurora kinase A): 0.93 µM | growth inhibition (GI) (LOX IMVI): >=25% | growth inhibition (GI) (786-0): >=25% | growth inhibition (GI) (T47D): >=25% | growth inhibition (GI) (HT-29): >=25% | growth inhibition (GI) (UO-31): 50% | growth inhibition (GI) (UACC-62): 34% | growth inhibition (GI) (SK-OV-3): 31% | growth inhibition (GI) (HCT-15): 34% | growth inhibition (GI) (SNB-19): >=25% | growth inhibition (GI) (A498): 54% | growth inhibition (GI) (ACHN): 39% | growth inhibition (GI) (SK-MEL-5): 31% | growth inhibition (GI) (RXF 393): 33% | growth inhibition (GI) (SN12C): >=25% | growth inhibition (GI) (SF-268): >=25% | growth inhibition (GI) (PC-3): 30% | IC50 (Aurora kinase B [3]): 0.09 µM | growth inhibition (GI) (NCI-H522): 35% | growth inhibition (GI) (MCF7): 30%

CCOC(=O)c1cnc2ccc(C)cc2c1Nc1cccc(NS(C)(=O)=O)c1
growth inhibition (GI) (KM12): >50% | inhibition (Aurora kinase B [1]): 81% | inhibition [2]: 64.4% | IC50 (Aurora kinase A): 0.98 µM | Ratio IC50 (Homo sapiens): 3 | growth inhibition (GI) (EKVX): >=20% | IC50 (Aurora kinase B [3]): 2.99 µM
